Assay results from US20170226123A1, “Phenylaminopyrimidine-Derived Compounds, Method for Obtaining, Using Said Compounds in the Treatment of Cancer, and Treatment Methods” (Fundacao Oswaldo Cruz, priority 2014, published 2017).
“Also recorded” adds a separate entry of the source.

Tests used:
K562 [1] = assay: Cell cycle and DNA fragmentation analysis (propidium iodide, flow cytometry), K562; type: cell-based, human; conditions: K562, 24 h
Protocol: (§1) The analysis of the impact of the new compounds on the phases of the cell cycle and on the induction of DNA fragmentation were carried out by DNA labeling with the fluorochrome propidium iodide. The assays were analyzed by flow cytometry and the results were analyzed in relation to the control (cells without treatment).
(§2) The induction of DNA fragmentation by the new compounds and by imatinib was assessed by flow cytometry. The analysis of cell cycle and DNA fragmentation was carried out upon 24 hours of incubation with the compounds.

K562-Lucena 1 [2] = conditions: MTT, 72 h; for viability reduction compared between K562 and Lucena lineages: FIG. 2A
Protocol: (§3) Cell viability was evaluated through the MTT method, after 72 hours of incubation with TKIs. MTT is a colorimetric method which measures mitochondrial dehydrogenase activity, based on the ability of living cells to reduce the salt, 3-(4,5-dimethylazole-2-yl)-2,5-diphenyltetrazolium bromide in the product formazan.
(§4) Cells were cultured in plates of 96 wells at the concentration of 1×10^4 cells/well in 200 μl of RPMI supplemented with 10% fetal bovine serum. 10 μl of each of the novel TKIs, or imatinib, previously diluted in RPMI medium, were added in different concentrations, and no molecule or imatinib was added in the control group. The plates were kept in a humid atmosphere containing 5% CO2 at 37° C. for 72 hours. Four hours before completion of the established time (72 hours), 20 μl of MTT (Sigma) (final concentration of 10 μg/ml) were added. The plates were kept in the oven for the remaining four hours. 180 μl of the supernatant were removed from each well, and then 150 μl of dimethylsulfoxide (DMSO; Sigma) were added, homogenizing thoroughly for complete dissolution of the salt crystals formed by mitochondrial metabolism, thus resulting in a coloration. […] The 96-well plate was read by the spectrophotometer (Spectramax Plus 384), using a wavelength of 570 nm. The results were analyzed through the absorbance of each well. The viability percentage was obtained through the following formula: [(Absorbance of cells treated with TKIs or imatinib/Absorbance of untreated cells)×100]. All the tests were performed in three different occasions. Three experiments, at least, independent, were carried out and triplicates were made for each concentration.
(§5) The compounds were tested for their cytotoxicity in this lineage.
(§6) The viability of the Lucena cell lineage was evaluated after 72 h of incubation with the novel compounds, through the MTT assay.

K562 [3] = assay: MTT cell viability, K562 lineage; conditions: for Cell viability percentage: average of three independent experiments;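 as to all read-outs here: K562 cells (BCR-ABL expressing, CML derived), MTT formazan absorbance after 72 h exposure, compared with untreated control cells, at least three independent experiments run in triplicate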
Protocol: as §3
Cells were cultured in plates of 96 wells at the concentration of 1×10^4 cells/well in 200 μl of RPMI supplemented with 10% fetal bovine serum. 10 μl of each of the novel TKIs, or imatinib, previously diluted in RPMI medium, were added in different concentrations, and no molecule or imatinib was added in the control group. The plates were kept in a humid atmosphere containing 5% CO2 at 37° C. for 72 hours. Four hours before completion of the established time (72 hours), 20 μl of MTT (Sigma) (final concentration of 10 μg/ml) were added. The plates were kept in the oven for the remaining four hours. 180 μl of the supernatant were removed from each well, and then 150 μl of dimethylsulfoxide (DMSO; Sigma) were added, homogenizing thoroughly for complete dissolution of the salt crystals formed by mitochondrial metabolism, thus resulting in a coloration. […] The 96-well plate was read by the spectrophotometer (Spectramax Plus 384), using a wavelength of 570 nm. The results were analyzed through the absorbance of each well. The viability percentage was obtained through the following formula: [(Absorbance of cells treated with TKIs or imatinib/Absorbance of untreated cells)×100]. All the tests were performed in three different occasions. Three experiments, at least, independent, were carried out and triplicates were made for each concentration. By means of this method, we detected the cell inhibition percentage of each new molecule and we compared it with the percentage of viability reduction caused by imatinib.

K562 [4] = assay: Annexin V/propidium iodide cell death assay by flow cytometry, K562; conditions: K562, 24 h, 0.25-1.0 μM
Protocol: (§7) Cells were incubated for 24 hours with or without addition of the novel compounds. The index of apoptosis induced by the novel compounds was obtained as follows: percentage of cells in induced apoptosis (treated with the drugs) minus the percentage of cells in spontaneous apoptosis (not treated with the drugs) (Vasconcelos et aL, 2007; Vasconcelos et al., 2011).
(§8) To analyze the apoptosis induction potential by the new imatinib derivatives, annexin V/propidium iodide assay was used by flow cytometry.
(§9) To analyze death by apoptosis, the cells were incubated for 24 hours instead of 72 hours.
(§10) Cells without addition of any drug were used for the evaluation of spontaneous death. Cells incubated with DMSO (used to solubilize the compounds derived from imatinib) were used to discard the effect of this substance on cell death induction.

K562-Lucena 1 [5] = assay: Annexin V/propidium iodide cell death assay by flow cytometry, K562-Lucena 1; conditions: for induction of cell death (annexin-positive and annexin/PI-positive cells): Lucena, 0.25-1.0 μM
Protocol: as §7, §8, §9, §10

K562-Lucena 1 [6] = assay: cells; conditions: Homo sapiens, K562-Lucena 1, 72 h, read-out: reduction in the viability
Protocol: as §3, §4, §5, §6

CML = CML patients treated with imatinib (Hunter, 2007); cited from earlier work
K562-Lucena 1 [7] = assay: Cell cycle and DNA fragmentation analysis (propidium iodide, flow cytometry), K562-Lucena 1; type: cell-based, human; conditions: 24 h
Protocol: as §1, §2

[8] = Homo sapiens, K562, 72 h, read-out: Cell viability percentage

Compound	viability reduction compared between K562 and Lucena lineages (K562-Lucena 1 [2])	Cell viability percentage (K562 [3]; K562, MTT, 72 h, 0.05 μM) [%]	Cell viability percentage (K562 [3]; K562, MTT, 72 h, 0.1 μM) [%]	Cell viability percentage (K562 [3]; K562, MTT, 72 h, 0.25 μM) [%]	Cell viability percentage (K562 [3]; K562, MTT, 72 h, 0.5 μM) [%]	Cell viability percentage (K562 [3]; K562, MTT, 72 h, 1.0 μM) [%]	Cell viability percentage (K562 [3]; K562, MTT, 72 h, 1.5 μM) [%]	Cell viability percentage (K562 [3]; K562, MTT, 72 h, 2.0 μM) [%]	Cell viability percentage (K562 [3]; K562, MTT, 72 h, 2.5 μM) [%]	Cell viability percentage (K562 [3]; K562, MTT, 72 h, 3.0 μM) [%]	Cell viability percentage (K562 [3]; K562, MTT, 72 h, 4.0 μM) [%]	Cell viability percentage (K562 [3]; K562, MTT, 72 h, 5.0 μM) [%]	induction of cell death (annexin-positive and annexin/PI-positive cells) (K562 [4])	induction of cell death (annexin-positive and annexin/PI-positive cells) (K562-Lucena 1 [5]; 24 h)	increase in the number of cells in G0/G1 phase (halt in G0/G1) (K562 [1])	other results
C[C@H]1[C@@H](OC(=O)CCC(=O)O)O[C@@H]2O[C@@]3(C)CC[C@H]4[C@H](C)CC[C@@H]1[C@@]24OO3.Cc1ccc(N)cc1Nc1nccc(-c2cccnc2)n1 [Compound 04, 4-methyl-3-((4-(pyridin-3-yl)pyrimidin-2-yl)amino)benzenaminium-4-oxo-4-(((3R,5aS,6R,8aS,9R,10R,12R,12aR)-3,6,9-trimethyldecahydro-3H-3,12-epoxy[1,2]dioxepin[4,3-yl]isochromen-10-yl)oxy)butanoate]	more effective in the Lucena lineage; also recorded: greater percentage of reduction of cell viability than the K562 lineage	97.54	86.68	87.20	79.53	85.68	69.52	56.13	53.28	48.95	48.17	47.69	induced cell death, probably by apoptosis	induced cell death, probably by apoptosis		alterations in the cell cycle (K562 [1]): did not foster alterations in the cell cycle; reduction of viability (K562 [3]; K562, MTT, 72 h, 2.5 μM): 50%; cell death rate compared with imatinib (K562-Lucena 1 [5]; Lucena lineage): higher
Cc1ccc(NC(=O)c2ccc(CN3CCN(C)CC3)cc2)cc1Nc1nccc(-c2cccnc2)n1 [Imatinib, imatinib, reference compound]															about 10%	DNA fragmentation (K562 [1]): induced DNA fragmentation; concentration from which viability reduction reached a plateau (K562-Lucena 1 [2]; Lucena): 1.5 µM; cytotoxicity at 0.25 µM (K562-Lucena 1 [6]): ~60%; patients reaching hematological remission (CML): ~100%; viability at 0.05 µM (K562 [3]; [8]): 93.5%; viability at 0.1 µM (K562 [3]; [8]): 63.4%; viability at 0.25 µM (K562 [3]; [8]): 54.5%; viability at 0.5 µM (K562 [3]; [8]): 20.1%; viability at 1 µM (K562 [3]; [8]): 16.3%; viability at 1.5 µM (K562 [3]; [8]): 14.3%; viability at 2 µM (K562 [3]; [8]): 19.8%; viability at 2.5 µM (K562 [3]; [8]): 19.4%; viability at 3 µM (K562 [3]; [8]): 14.8%; viability at 4 µM (K562 [3]; [8]): 13.5%; viability at 5 µM (K562 [3]; [8]): 15%
C[C@H]1[C@@H](OC(=O)CCC(=O)O)O[C@@H]2O[C@@]3(C)CC[C@H]4[C@H](C)CC[C@@H]1[C@@]24OO3.Cc1ccc(NC(=O)c2ccc(CN3CCN(C)CC3)cc2)cc1Nc1nccc(-c2cccnc2)n1 [Compound 03, N-(2-methyl-5-(4-((4-methylpiperazine-1-yl)methyl)benzamide)phenyl)-4-(pyridin-3-yl)pyrimidin-2-aminium-4-oxo-4-(((3R,5aS,6R,8aS,9R,10R,12R,12aR)-3,6,9-trimethyldecahydro-3H-3, 12-epoxy[1,2]dioxepin[4,3-yl]isochromen-10-yl)oxy)butanoate]	reduced the viability in the two lineages in a similar way	77.68	82.43	43.45	20.16	18.11	16.73	15.12	17.89	16.69	16.51	15.76	induced cell death, probably by apoptosis	induced cell death, probably by apoptosis	about 10%	DNA fragmentation (K562-Lucena 1 [7]): induced DNA fragmentation; reduction in cell viability (K562 [3]; K562, MTT, 72 h, 0.25 μM): about 50%; cell death rate in Lucena compared with K562 (K562-Lucena 1 [5]; 24 h): greater cell death rate than the K562 lineage
